In ChEMBL document CHEMBL5518186, “Discovery of the cereblon-recruiting tubulin PROTACs effective in overcoming Taxol resistance in vitro and in vivo” (Eur J Med Chem, 2024):
Active and inactive are the calls of the source. The calls are words filed in the database; no cut-off is given here.

Experiments:
[1] = tested on: MGC-803; assay: Antiproliferative activity against human MGC-803 cells incubated for 72 hrs; type: functional, cell-based; conditions: MGC-803, 72 h
[2] = Toxicity in nude mouse xenografted with human A549 cells assessed as body weight loss at 15 mg/kg, ip administered once every 2 days for 23 days and measured every 3 days; type: organism-based; conditions: in vivo, 552 h, time 23 day
[3] = molecular target: T1, Protein cereblon/Tubulin beta (Homo sapiens) (UniProt P68371+Q9H4B7+Q13509+P04350+Q3ZCM7+P07437+Q13885+Q9BVA1+Q9BUF5+Q96SW2+A6NNZ2); assay: Protac activity at CRBN/beta-tubulin in human A549 cells assessed as reduction in beta-tubulin level at 0.25 uM by immunoblotting analysis; type: cell-based; conditions: time 6-72 hrs, TDE = time-dependent effect
[4] = molecular target: T1, Protein cereblon/Tubulin beta (Homo sapiens); assay: Protac activity at CRBN/beta-tubulin in human A549 cells assessed as reduction in beta-tubulin level at 0.25 uM pretreated with pomalidomide for 2 hrs followed by compound addition and measured after 24 hrs by immunoblotting analysis; type: cell-based
[5] = molecular target: T2, Protein cereblon/Tubulin beta-3 chain (Homo sapiens, UniProt Q13509+Q96SW2); assay: Protac activity at CRBN/beta3-tubulin in human A549 cells assessed as reduction in beta3-tubulin level incubated for 48 hrs by immunoblotting analysis; type: cell-based
[6] = molecular target: T1, Protein cereblon/Tubulin beta (Homo sapiens); assay: Protac activity at CRBN/beta-tubulin in human HepG2 cells assessed as reduction in beta-tubulin level at 10 to 1000 nM incubated for 48 hrs by immunoblotting analysis; type: cell-based; conditions: dose 10-1000 nM
[7] = molecular target: T2, Protein cereblon/Tubulin beta-3 chain; assay: Protac activity at CRBN/beta3-tubulin in human HepG2 cells assessed as reduction in beta3-tubulin level at 10 to 1000 nM incubated for 48 hrs by immunoblotting analysis; type: cell-based; conditions: dose 10-1000 nM
Target sequence in this assay (Q13509 whole entry, looked up): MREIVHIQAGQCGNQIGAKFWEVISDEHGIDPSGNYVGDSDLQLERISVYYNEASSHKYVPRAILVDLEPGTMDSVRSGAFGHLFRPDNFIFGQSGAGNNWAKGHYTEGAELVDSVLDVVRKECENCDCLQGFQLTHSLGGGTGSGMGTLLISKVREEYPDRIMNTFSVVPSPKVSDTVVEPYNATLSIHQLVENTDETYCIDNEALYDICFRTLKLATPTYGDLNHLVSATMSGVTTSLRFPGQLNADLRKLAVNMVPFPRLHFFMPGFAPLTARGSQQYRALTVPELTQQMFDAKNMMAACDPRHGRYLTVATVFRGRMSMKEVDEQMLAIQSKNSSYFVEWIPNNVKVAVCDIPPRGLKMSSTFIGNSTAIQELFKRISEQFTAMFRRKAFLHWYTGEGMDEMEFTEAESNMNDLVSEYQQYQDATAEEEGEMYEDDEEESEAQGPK
Target sequence in this assay (Q96SW2 whole entry, looked up): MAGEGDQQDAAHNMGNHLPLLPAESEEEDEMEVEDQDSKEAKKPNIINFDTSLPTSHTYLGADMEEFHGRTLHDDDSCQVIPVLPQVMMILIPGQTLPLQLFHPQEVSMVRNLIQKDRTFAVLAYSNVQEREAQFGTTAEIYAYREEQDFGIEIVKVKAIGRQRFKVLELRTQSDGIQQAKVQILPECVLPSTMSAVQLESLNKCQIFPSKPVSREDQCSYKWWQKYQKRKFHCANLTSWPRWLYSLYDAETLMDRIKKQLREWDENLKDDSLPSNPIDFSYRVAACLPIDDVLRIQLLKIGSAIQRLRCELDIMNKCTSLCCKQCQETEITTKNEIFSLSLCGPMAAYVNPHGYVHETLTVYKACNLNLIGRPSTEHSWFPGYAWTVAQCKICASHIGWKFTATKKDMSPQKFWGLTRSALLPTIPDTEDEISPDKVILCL

[8] = molecular target: T2, Protein cereblon/Tubulin beta-3 chain; assay: Protac activity at CRBN/beta3-tubulin in human A549 cells assessed as reduction in beta3-tubulin level at 0.25 uM by immunoblotting analysis; type: cell-based; conditions: time 6-72 hrs, TDE = time-dependent effect
Target sequence in this assay (Q13509 whole entry, looked up): as the sequence (Q13509 whole entry, looked up) above
Target sequence in this assay (Q96SW2 whole entry, looked up): as the sequence (Q96SW2 whole entry, looked up) above

[9] = tested on: A549; assay: Induction of apoptosis in human A549 cells assessed as increase in apoptotic rate at 0.05 uM incubated for 48 hrs by Annexin V-FITC/PI staining based flow cytometry analysis (reference value: 1.3%); type: functional
[10] = molecular target: T2, Protein cereblon/Tubulin beta-3 chain; assay: Protac activity at CRBN/beta3-tubulin in human MGC-803 cells assessed as reduction in beta3-tubulin level at 10 to 1000 nM incubated for 48 hrs by immunoblotting analysis; type: cell-based; conditions: dose 10-1000 nM
Target sequence in this assay (Q13509 whole entry, looked up): as the sequence (Q13509 whole entry, looked up) above
Target sequence in this assay (Q96SW2 whole entry, looked up): as the sequence (Q96SW2 whole entry, looked up) above

[11] = tested on: U-937; assay: Antiproliferative activity against human U-937 cells incubated for 72 hrs; type: functional, cell-based; conditions: U-937, 72 h
[12] = tested on: A549; assay: Induction of cell cycle arrest in human A549 cells assessed as accumulation of cells at G2/M phase at 0.05 uM incubated for 24 hrs by PI staining based flow cytometry analysis (reference value: 31.86%); type: functional
[13] = molecular target: T3, Protein cereblon-alpha tubulin (Homo sapiens) (UniProt P0DPH7+P68366+Q71U36+P68363+Q9BQE3+Q6PEY2+A6NHL2+Q9NY65+Q96SW2); assay: Protac activity at CRBN/alpha-tubulin in human A549 cells assessed as reduction in alpha-tubulin level at 0.25 uM pretreated for 48 hrs followed by compound washout and measured upto 24 hrs by immunoblotting analysis; type: cell-based
[14] = molecular target: Protein cereblon-alpha tubulin; assay: (§1) Protac activity at CRBN/alpha-tubulin in human A549/Taxol cells assessed as reduction in alpha-tubulin level incubated for 48 hrs by immunoblotting analysis; type: cell-based
[15] = molecular target: T3, Protein cereblon-alpha tubulin (Homo sapiens); assay: as §1; type: cell-based
[16] = molecular target: T3, Protein cereblon-alpha tubulin (Homo sapiens); assay: Protac activity at CRBN/alpha-tubulin in human A549 cells assessed as reduction in alpha-tubulin level at 0.25 uM after 72 hrs by immunoblotting analysis; type: cell-based; parameters: scale not given: the % may be the effect or the level left
[17] = tested on: HepG2; assay: Induction of intracellular ROS generation in human HepG2 cells; type: functional, cell-based
[18] = Resistance index, ratio of IC50 for human MCF7/Taxol cells to IC50 for human MCF7 cells; type: functional
[19] = tested on: A549/TR; assay: Inhibition of colony formation in human A549/Taxol cells incubated for 24 hrs followed by media replacement at every 3 days for 14 days by crystal violet staining based assay; type: functional, cell-based; conditions: dose 2-50 nM, time 14.0 day
[20] = tested on: HepG2; assay: Inhibition of cell proliferation in human HepG2 cells; type: functional, cell-based
[21] = tested on: A549; assay: Inhibition of colony formation in human A549 cells incubated for 24 hrs followed by media replacement at every 3 days for 14 days by crystal violet staining based assay; type: functional, cell-based; conditions: dose 2-50 nM, time 14.0 day
[22] = tested on: A549; assay: Antiproliferative activity against human A549 cells incubated for 72 hrs; type: functional, cell-based; conditions: A549, 72 h
[23] = tested on: HepG2; assay: Induction of DNA damage in human HepG2 cells assessed as gamma-H2AX level; type: functional, cell-based
[24] = tested on: A549; assay: Induction of cell cycle arrest in human A549 cells assessed as accumulation of cells at G0/G1 phase at 0.05 uM incubated for 24 hrs by PI staining based flow cytometry analysis (reference value: 66.75%); type: functional
[25] = molecular target: T2, Protein cereblon/Tubulin beta-3 chain; assay: Protac activity at CRBN/beta3-tubulin in human A549 cells assessed as reduction in beta3-tubulin level at 0.25 uM pretreated with MG-132 followed by compound addition and measured after 24 hrs by immunoblotting analysis; type: cell-based
Target sequence in this assay (Q13509 whole entry, looked up): as the sequence (Q13509 whole entry, looked up) above
Target sequence in this assay (Q96SW2 whole entry, looked up): as the sequence (Q96SW2 whole entry, looked up) above

[26] = tested on: A549/TR; assay: Antitumor activity against human A549/Taxol cells xenografted in nude mouse assessed as tumor growth inhibition at 15 mg/kg, ip administered once every 2 days for 23 days by Vernier caliper method; type: functional; conditions: 552 h, time 23 day, read-out: TGI
[27] = molecular target: T1, Protein cereblon/Tubulin beta (Homo sapiens); assay: Protac activity at CRBN/beta-tubulin in human MCF7 cells assessed as reduction in beta-tubulin level at 10 to 1000 nM incubated for 48 hrs by immunoblotting analysis; type: cell-based; conditions: dose 10-1000 nM
[28] = tested on: A549/TR; assay: Induction of cell cycle arrest in human A549/Taxol cells assessed as accumulation of cells at G0/G1 phase at 0.05 uM incubated for 24 hrs by PI staining based flow cytometry analysis (reference value: 77.86%); type: functional
[29] = molecular target: T2, Protein cereblon/Tubulin beta-3 chain; assay: Protac activity at CRBN/beta3-tubulin in human A549 cells assessed as reduction in beta3-tubulin level at 0.25 uM after 72 hrs by immunoblotting analysis; type: cell-based
Target sequence in this assay (Q13509 whole entry, looked up): as the sequence (Q13509 whole entry, looked up) above
Target sequence in this assay (Q96SW2 whole entry, looked up): as the sequence (Q96SW2 whole entry, looked up) above

[30] = molecular target: Protein cereblon-alpha tubulin; assay: (§2) Protac activity at CRBN/alpha-tubulin in human A549 cells assessed as reduction in alpha-tubulin level incubated for 48 hrs by immunoblotting analysis; type: cell-based
[31] = molecular target: T3, Protein cereblon-alpha tubulin (Homo sapiens); assay: as §2; type: cell-based
[32] = tested on: A549/TR; assay: Induction of cell cycle arrest in human A549/Taxol cells assessed as accumulation of cells at G2/M phase at 0.002 uM incubated for 24 hrs by PI staining based flow cytometry analysis (reference value: 17.02%); type: functional
[33] = tested on: HUVEC; assay: Antiangiogenic activity in HUVECs assessed as reduction in cord formation at 2.5 nM incubated for 6 to 8 hrs by inverted microscopic analysis; type: functional, cell-based; conditions: Homo sapiens, time 6-8 hrs
[34] = molecular target: T2, Protein cereblon/Tubulin beta-3 chain; assay: Protac activity at CRBN/beta3-tubulin in human A549 cells assessed as reduction in beta3-tubulin level at 0.25 uM pretreated for 48 hrs followed by compound washout and measured after 24 hrs by immunoblotting analysis; type: cell-based
Target sequence in this assay (Q13509 whole entry, looked up): as the sequence (Q13509 whole entry, looked up) above
Target sequence in this assay (Q96SW2 whole entry, looked up): as the sequence (Q96SW2 whole entry, looked up) above

[35] = molecular target: T3, Protein cereblon-alpha tubulin (Homo sapiens); assay: Protac activity at CRBN/alpha-tubulin in human A549 cells assessed as reduction in alpha-tubulin level at 0.25 uM pretreated with CA-4 for 2 hrs followed by compound addition and measured after 24 hrs by immunoblotting analysis; type: cell-based
[36] = molecular target: T2, Protein cereblon/Tubulin beta-3 chain; assay: Protac activity at CRBN/beta3-tubulin in human A549 cells assessed as reduction in beta3-tubulin level at 0.25 uM pretreated with pomalidomide for 2 hrs followed by compound addition and measured after 24 hrs by immunoblotting analysis; type: cell-based

IC50 [1]: 8 nM
Activity [3]: Tde
Activity [4]: inactive
Activity [5]: Dose-Dependent Effect
DC50 [5]: 251 nM
Activity [6]: Active
Activity [7]: Active
Activity [8]: Tde
Activity [10]: Active
IC50 [11]: 18 nM
Activity [13]: Active
DC50 [14]: 32 nM
Activity [15]: Dose-Dependent Effect
Activity [16]: 43.7%
IC50 [22]: 10 nM
Activity [25]: inactive
Activity [27]: Active
Activity [29]: inactive
DC50 [30]: 296 nM
Activity [31]: Dose-Dependent Effect
Activity [34]: inactive
Activity [35]: inactive
Activity [36]: inactive
SMILES: COc1ccc(/C=C\c2cc(OC)c(OC)c(OC)c2)cc1OC(=O)CCCNc1cccc2c1C(=O)N(C1CCC(=O)NC1=O)C2=O (configuration not stated)
Activity [2]: Non-Toxic
Activity [9]: 48.2%
Activity [12]: 73.41%
Activity [17]: Active
Ratio IC50 [18]: 0.5
inhibition [19]: Dose-Dependent Effect
inhibition [20]: Active
inhibition [21]: Dose-Dependent Effect
Activity [23]: Active
Activity [24]: 10.15%
inhibition in vivo at 15 mg/kg [26]: 65.8%
Activity [28]: 30%
Activity [32]: 23.69%
Activity [33]: Active
